Results reported in US9200046B2, “Reporter system for high throughput screening of compounds and uses thereof” (priority 2011, dated 2015).
Where a name gives a salt, the structure may show the parent alone. Read-outs that look alike come from different tables or passages of the source.

Target: Nrf2-Keap1 complex (Homo sapiens, UniProt Q14145)
Test: cell-based
Format: cell-based
Conditions: for activation at 16 µM / activation at 32 µM: 3 h; for activation at 16 µM: read-out: Activation 100 nL; for activation at 32 µM: read-out: Activation 200 nL
[1] = Table 2, 100 nL compound, screen run at 16 and 32 μM, 3 hr
[2] = Table 2, 200 nL compound, screen run at 16 and 32 μM, 3 hr
[3] = Table 1A, 100 nL compound, screen run at 16 and 32 μM, 3 hr
[4] = Table 1A, 200 nL compound, screen run at 16 and 32 μM, 3 hr

Chain of Nrf2-Keap1 complex (Q14145 whole entry, one chain of several): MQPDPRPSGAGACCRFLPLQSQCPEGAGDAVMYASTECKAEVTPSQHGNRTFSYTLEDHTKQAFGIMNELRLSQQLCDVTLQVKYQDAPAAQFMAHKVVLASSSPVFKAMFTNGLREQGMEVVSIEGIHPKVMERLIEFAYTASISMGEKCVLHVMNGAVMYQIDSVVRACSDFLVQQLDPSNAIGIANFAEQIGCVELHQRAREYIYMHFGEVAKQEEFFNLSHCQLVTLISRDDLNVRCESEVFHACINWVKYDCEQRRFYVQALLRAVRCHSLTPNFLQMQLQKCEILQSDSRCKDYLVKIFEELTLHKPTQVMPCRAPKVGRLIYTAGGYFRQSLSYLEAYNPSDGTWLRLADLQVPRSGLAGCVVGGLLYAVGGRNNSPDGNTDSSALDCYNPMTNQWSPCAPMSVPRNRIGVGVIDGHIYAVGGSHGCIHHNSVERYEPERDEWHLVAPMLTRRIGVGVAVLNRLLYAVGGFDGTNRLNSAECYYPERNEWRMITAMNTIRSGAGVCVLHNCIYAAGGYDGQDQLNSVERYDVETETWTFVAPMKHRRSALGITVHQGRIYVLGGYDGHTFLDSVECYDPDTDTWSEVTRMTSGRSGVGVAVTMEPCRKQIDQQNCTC

| Structure (SMILES) | 100 nL (luminescence) | 200 nL (luminescence) | activation at 16 µM [%] | activation at 32 µM [%] | 100 nL (luminescence) [1] | 200 nL (luminescence) [2] | 100 nL (luminescence) [3] | 200 nL (luminescence) [4] | Activation 100 nL [%] | Activation 200 nL [%] | Neh2-luc reporter activation [%] |
| --- | --- | --- | --- | --- | --- | --- | --- | --- | --- | --- | --- |
| O=C(CC(=O)c1ccccc1)c1ccccc1 [DIBENZOYLMETHANE] | 1368 | 204 | 66 | -8 |  |  |  |  |  |  |  |
| O=C1C=CC(=O)c2c(O)cccc21 [JUGLONE] |  |  | 58 | 95 |  |  |  |  |  |  |  |
| O=C(O)c1cc(O)c2c(c1)[C@@H]([C@H]1c3cc(C(=O)O)cc(O)c3C(=O)c3c(O[C@H]4O[C@H](CO)[C@@H](O)[C@H](O)[C@H]4O)cccc31)c1cccc(O[C@H]3O[C@H](CO)[C@@H](O)[C@H](O)[C@H]3O)c1C2=O [SENNOSIDEA, reference compound] | 3204 | 4 | 141 | -24 |  |  |  |  |  |  |  |
| COc1ccc(C(=O)/C=C/c2ccccc2)cc1 [4′-METHOXYCHALCONE] |  |  | 134 | -15 | 2400 | 102 |  |  |  |  |  |
| Oc1ccc2c(c1)OCC1c3cc4c(cc3OC21)OCO4 (centres unmarked) [MAACKIAIN] |  |  | 74 | 95 |  |  | 1492 | 1772 |  |  |  |
| CC(=O)Oc1cc2c(cc1OC(C)=O)[C@@H]1c3ccc(OC(C)=O)c(OC(C)=O)c3OC[C@]1(OC(C)=O)C2 [HAEMATOXYLINPENTAACETATE] |  |  |  |  | 1040 | 1304 |  |  | 50 | 37 |  |
| COc1ccc2cc1Oc1ccc(cc1)C[C@H]1c3c(cc4c(c3Oc3cc5c(cc3OC)CCN(C)[C@@H]5C2)OCO4)CCN1C [CEPHARANTHINE, reference compound] |  |  | 98 | 9 |  |  | 2348 | 584 |  |  |  |
| COc1cc(O)c(C(=O)/C=C/c2ccc(OC)c(O)c2)c(OC)c1 [2′,3-DIHYDROXY-4,4′,6′-TRIMETHOXYCHALCONE] |  |  | 296 | 10 | 5436 | 544 |  |  |  |  |  |
| Nc1ncnc2c1ncn2C1O[C@H](COP(=O)(O)O)[C@@H](O)[C@H]1O (some centres unmarked) [ADENOSINEPHOSPHATE, reference compound] |  |  | 27 | 14 |  |  | 924 | 556 |  |  |  |
| O=S(=O)(O)CCS [MESNA, reference compound] | 952 | 612 | 28 | 18 |  |  |  |  |  |  |  |
| COc1cc([C@@H]2c3cc4c(cc3[C@@H](O[C@@H]3O[C@@H]5CO[C@@H](c6cccs6)O[C@H]5[C@H](O)[C@H]3O)[C@H]3COC(=O)[C@H]23)OCO4)cc(OC)c1O [TENIPOSIDE, reference compound] |  |  | 159 | 61 | 3572 | 1520 |  |  |  |  | 200 |
| CC1(C)C(=O)CC[C@]2(C)[C@H]3CC[C@]4(C)C(=CC(=O)O[C@H]4c4ccoc4)[C@]3(C)[C@H](O)C[C@@H]12 [DIHYDRO-7-DESACETYLDEOXYGEDUNIN] |  |  |  |  | 1852 | 1796 |  |  | 98 | 96 |  |
| COc1ccc2c(c1)OCC(Cc1ccc(OC(C)=O)c(OC)c1)C2=O (centres unmarked) |  |  |  |  | 3740 | 1388 |  |  | 221 | 70 |  |
| COC(=O)c1cc(OC)c(=O)c2c(OC)c(OC)ccc2c1 [METHYL7-DESOXYPURPUROGALLIN-7-CARBOXYLATETRIMETHYLETHER] |  |  |  |  | 8248 | 1932 |  |  | 516 | 105 |  |
| O=C(NC(=O)c1c(F)cccc1F)Nc1cc(Cl)c(OC(F)(F)C(F)C(F)(F)F)cc1Cl (centres unmarked) [LUFENURON] | 644 | 1022 | 32 | 29 |  |  |  |  |  |  |  |
| CCOCN(C(=O)CCl)c1c(C)cccc1CC [ACETOCHLOR] |  |  | 71 | 112 | 1320 | 3024 |  |  |  |  |  |
| CC(=O)Oc1cc(-c2coc3cc(OC(C)=O)c(OC(C)=O)c(OC(C)=O)c3c2=O)cc(OC(C)=O)c1OC(C)=O [IRIGINOLHEXAACEATATE] |  |  | 65 | 58 | 1350 | 1208 |  |  |  |  |  |

| Structure (SMILES) | 100 nL (luminescence) | 200 nL (luminescence) | activation at 16 µM [%] | activation at 32 µM [%] | 100 nL (luminescence) [1] | 200 nL (luminescence) [2] | 100 nL (luminescence) [3] | 200 nL (luminescence) [4] | Activation 100 nL [%] | Activation 200 nL [%] | Neh2-luc reporter activation [%] |
| --- | --- | --- | --- | --- | --- | --- | --- | --- | --- | --- | --- |
| C=C(C)[C@H]1Cc2c(ccc3c2O[C@@H]2COc4cc(OC)c(OC)cc4[C@@H]2C3=O)O1 [ROTENONE] |  |  | 31 | 30 | 776 | 1136 |  |  |  |  |  |
| COc1cc(O)c2c(=O)cc(C)oc2c1CC=C(C)C [HETEROPEUCENIN, METHYLETHER] |  |  |  |  | 772 | 1020 |  |  | 27 | 45 |  |
| O=c1c(-c2ccc(O)cc2)coc2cc(O)cc(O)c12 [GENISTEIN] |  |  | 106 | 93 | 1980 | 1748 |  |  |  |  |  |
| COC1=CC(=O)C(C(=O)c2ccccc2)=CC1=O [2-BENZOYL-5-METHOXYBENZOQUINONE] |  |  | 72 | 83 | 994 | 2280 |  |  |  |  |  |
| C=C[C@@](C)(O)CCC1C(=C)CCC2[C@@](C)(CO)CCC[C@]12C (stereo partly drawn) [EPI(13)TORULOSOL] |  |  |  |  | 724 | 448 |  |  | 27 | 0 |  |
| COc1cc(C)c2c(c1C=O)Oc1c(c(C)c(O)c3c1C(O)OC3=O)OC2=O (centres unmarked) [[…]] |  |  | 56 | 65 | 1114 | 1952 |  |  |  |  |  |
| CC(=O)N1CCN(c2ccc(OCC3CO[C@](Cn4ccnc4)(c4ccc(Cl)cc4Cl)O3)cc2)CC1 (some centres unmarked) [KETOCONAZOLE, reference compound] | 1144 | 1026 |  |  |  |  |  |  | 64 | 33 |  |
| NCCc1ccc(O)c(O)c1 [3-HYDROXYTYRAMINE] | 990 | 1704 | 37 | 69 |  |  |  |  |  |  |  |
| O=C1C[C@@H](c2ccc(O)c(O)c2)Oc2cc(O)cc(O)c21 [ERIODYCTOL] |  |  |  |  | 1028 | 768 |  |  | 76 | 18 |  |
| CC1=C2C(=CO[C@H](C)[C@H]2C)C(O)=C(C(=O)O)C1=O [CITRININ] |  |  | 219 | 217 |  |  |  |  |  |  |  |
| COC1=CC(=O)C[C@@H](C)[C@]12Oc1c(Cl)c(OC)cc(OC)c1C2=O [GRISEOFULVIN, reference compound] |  |  | 41 | 182 | 1208 | 3684 |  |  |  |  |  |
| CNc1ccccc1C(=O)N1CCc2c([nH]c3ccccc23)C1=O [RHETSININE] |  |  | 53 | 4 |  |  | 1076 | 532 |  |  |  |
| CC(=O)O[C@@H]1CC2C(C)(C)C(=O)C3OC3[C@]2(C)C2CC[C@@]3(C)[C@H](c4ccoc4)OC(=O)C4OC43[C@@]21C (some centres unmarked) [EPOXYGEDUNIN] |  |  |  |  | 784 | 988 |  |  | 28 | 43 |  |
| COc1c(O)cc2c(-c3ccccc3)cc(=O)oc2c1OC [KUHLMANNIN] |  |  | 26 | 33 | 596 | 1104 |  |  |  |  |  |
| O=C(O)/C=C/c1ccc(O)c(O)c1 [[…]] |  |  | 50 | 61 | 1040 | 1840 |  |  |  |  |  |
| COc1cc2nc(N3CCN(C(=O)c4ccco4)CC3)nc(N)c2cc1OC [PRAZOSINHYDROCHLORIDE, reference compound] |  |  | 87 | 40 |  |  |  |  |  |  |  |
| COc1cc(/C=C/CO)ccc1O [CONIFERYLALCOHOL] |  |  | 125 | 79 | 2032 | 2264 |  |  |  |  |  |
